± gives the uncertainty stated by the source.
Assay: xn = mol fraction of the nth substance listed

CC(C)CC1CCCCC1 + CCCCCCCCCCCCCCCC
viscosity [mPa·s], 102 kPa
Settings	x1 = 0.1	x1 = 0.2005	x1 = 0.3003	x1 = 0.3992	x1 = 0.5037	x1 = 0.6003	x1 = 0.6997	x1 = 0.7997
293.15 K	3.22 ± 0.03	2.96 ± 0.02	2.7 ± 0.02	2.46 ± 0.02	2.2 ± 0.02	1.99 ± 0.02	1.77 ± 0.02	1.56 ± 0.02
303.15 K	2.57 ± 0.02	2.38 ± 0.02	2.19 ± 0.02	2.01 ± 0.02	1.82 ± 0.02	1.65 ± 0.02	1.48 ± 0.02	1.31 ± 0.02
313.15 K	2.1 ± 0.02	1.95 ± 0.02	1.81 ± 0.02	1.67 ± 0.02	1.52 ± 0.02	1.39 ± 0.02	1.26 ± 0.02	1.12 ± 0.02
323.15 K	1.74 ± 0.02	1.63 ± 0.02	1.52 ± 0.02	1.41 ± 0.02	1.29 ± 0.02	1.19 ± 0.02	1.07 ± 0.02	0.972 ± 0.021

CCCNCCC + CCCCCCCCCCO
viscosity [mPa·s], 101.33 kPa
Settings	x1 = 0.1006	x1 = 0.1963	x1 = 0.2905	x1 = 0.3847	x1 = 0.5117	x1 = 0.618	x1 = 0.7197	x1 = 0.8159	x1 = 0.895
303.15 K	7.53 ± 0.076	6.262 ± 0.066	5.075 ± 0.056	3.99 ± 0.045	2.748 ± 0.032	1.943 ± 0.023	1.364 ± 0.017	0.9795 ± 0.012	0.7427 ± 0.0098
313.15 K	5.817 ± 0.062	4.775 ± 0.053	3.828 ± 0.043	2.993 ± 0.034	2.07 ± 0.024	1.486 ± 0.018	1.076 ± 0.013	0.7925 ± 0.01	0.6095 ± 0.0083

CCCNCCC + CCCCCCCCO
viscosity [mPa·s], 101.33 kPa
Settings	x1 = 0.0971	x1 = 0.1988	x1 = 0.2871	x1 = 0.3825	x1 = 0.4806	x1 = 0.5852	x1 = 0.6925	x1 = 0.7882	x1 = 0.8977
303.15 K	5.165 ± 0.057	4.21 ± 0.047	3.462 ± 0.039	2.752 ± 0.032	2.135 ± 0.025	1.61 ± 0.019	1.202 ± 0.015	0.9319 ± 0.012	0.6909 ± 0.0092
313.15 K	3.773 ± 0.043	3.107 ± 0.036	2.571 ± 0.03	2.053 ± 0.024	1.6 ± 0.019	1.223 ± 0.015	0.9264 ± 0.012	0.7294 ± 0.0097	0.5547 ± 0.0077

CC1CCCCC1 + CCCCCCCO
Settings	viscosity [mPa·s]
298.15 K, 101 kPa, x1 = 0.111	4.608 ± 0.035
298.15 K, 101 kPa, x1 = 0.2237	3.546 ± 0.027
298.15 K, 101 kPa, x1 = 0.389	2.371 ± 0.019
298.15 K, 101 kPa, x1 = 0.6878	1.192 ± 0.01
298.15 K, 101 kPa, x1 = 0.8281	0.89 ± 0.008
298.15 K, 101 kPa, x1 = 0.9181	0.757 ± 0.007
303.15 K, 101.33 kPa, x2 = 0.1208	0.7838 ± 0.01
303.15 K, 101.33 kPa, x2 = 0.211	0.9181 ± 0.011
303.15 K, 101.33 kPa, x2 = 0.3517	1.174 ± 0.014
303.15 K, 101.33 kPa, x2 = 0.4355	1.364 ± 0.016
303.15 K, 101.33 kPa, x2 = 0.5214	1.599 ± 0.019
303.15 K, 101.33 kPa, x2 = 0.608	1.899 ± 0.022
303.15 K, 101.33 kPa, x2 = 0.718	2.394 ± 0.028
303.15 K, 101.33 kPa, x2 = 0.7991	2.87 ± 0.033
303.15 K, 101.33 kPa, x2 = 0.8894	3.56 ± 0.041

CCCNCCC + CCCCCCCO
viscosity [mPa·s], 101.33 kPa
Settings	x1 = 0.0952	x1 = 0.1932	x1 = 0.2891	x1 = 0.3853	x1 = 0.5194	x1 = 0.6089	x1 = 0.717	x1 = 0.8156	x1 = 0.9054
303.15 K	4.145 ± 0.047	3.485 ± 0.04	2.867 ± 0.033	2.311 ± 0.027	1.672 ± 0.02	1.333 ± 0.016	1.02 ± 0.013	0.809 ± 0.01	0.6553 ± 0.0088
313.15 K	3.063 ± 0.035	2.556 ± 0.03	2.111 ± 0.025	1.724 ± 0.021	1.283 ± 0.016	1.045 ± 0.013	0.8136 ± 0.011	0.6509 ± 0.0088	0.5273 ± 0.0074

CC1CCCCC1 + CCCCCCO
303.15 K, 101.33 kPa
Settings	viscosity [mPa·s]
x1 = 0.1015	3.051 ± 0.028
x1 = 0.2596	2.193 ± 0.02
x1 = 0.4197	1.536 ± 0.014
x1 = 0.582	1.11 ± 0.01
x1 = 0.7447	0.852 ± 0.008
x1 = 0.8989	0.693 ± 0.006
x2 = 0.1112	0.7521 ± 0.0097
x2 = 0.1986	0.8469 ± 0.011
x2 = 0.3135	1.009 ± 0.013
x2 = 0.4018	1.148 ± 0.014
x2 = 0.4981	1.351 ± 0.016
x2 = 0.5978	1.595 ± 0.019
x2 = 0.7018	1.908 ± 0.022
x2 = 0.8123	2.408 ± 0.028
x2 = 0.8923	2.874 ± 0.033

CCOC(=O)[C@@H](O)[C@H](O)C(=O)OCC + CCCCCCO
viscosity [mPa·s], 101 kPa
Settings	x1 = 0.1001	x1 = 0.2	x1 = 0.3	x1 = 0.4	x1 = 0.5	x1 = 0.5998	x1 = 0.7001	x1 = 0.8	x1 = 0.8995
293.15 K	6.18 ± 0.049	7.861 ± 0.062	10.57 ± 0.083	14.54 ± 0.11	20.8 ± 0.16	30.68 ± 0.24	43.54 ± 0.34	72.93 ± 0.64	122.9 ± 1.6
298.15 K	5.252 ± 0.042	6.543 ± 0.052	8.559 ± 0.067	11.55 ± 0.09	16.09 ± 0.13	22.97 ± 0.18	31.66 ± 0.25	50.5 ± 0.37	81.01 ± 0.77
303.15 K	4.449 ± 0.036	5.484 ± 0.043	7.046 ± 0.056	9.307 ± 0.073	12.59 ± 0.098	17.51 ± 0.14	23.57 ± 0.18	36.18 ± 0.28	55.71 ± 0.41
308.15 K	3.803 ± 0.031	4.618 ± 0.037	5.836 ± 0.046	7.569 ± 0.06	10.04 ± 0.079	13.64 ± 0.11	18 ± 0.14	26.73 ± 0.21	39.73 ± 0.31
313.15 K	3.251 ± 0.026	3.893 ± 0.031	4.85 ± 0.039	6.204 ± 0.049	8.087 ± 0.064	10.78 ± 0.084	13.99 ± 0.11	20.22 ± 0.16	29.19 ± 0.23
318.15 K	2.838 ± 0.023	3.369 ± 0.027	4.146 ± 0.033	5.219 ± 0.041	6.697 ± 0.053	8.77 ± 0.069	11.19 ± 0.087	15.77 ± 0.12	22.15 ± 0.17
323.15 K	2.506 ± 0.021	2.946 ± 0.024	3.581 ± 0.029	4.451 ± 0.036	5.632 ± 0.045	7.262 ± 0.057	9.138 ± 0.071	12.59 ± 0.098	17.3 ± 0.14

Source: the CheMixHub viscosity set
